From PubChem BioAssay (NCI)
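GI50 = concentration required for 50% inhibition of growth. At the TGI there is no net growth.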 Residues, ends and D or L forms follow the SMILES beside them. *: point of attachment. Cbz = O=C(OCc1ccccc1)*

Experiments:
Assay in all cases: inhibition of tumour cell growth, NCI panel, 384-well format
HCC-2998 colon = system: HCC-2998 colon
NCI/ADR-RES ovarian = system: NCI/ADR-RES ovarian
UACC-257 melanoma = system: UACC-257 melanoma
CAKI-1 renal = system: CAKI-1 renal
SK-OV-3 ovarian = system: SK-OV-3 ovarian
M14 melanoma = system: M14 melanoma
MDA-MB-231 breast = system: MDA-MB-231 breast
SK-MEL-5 melanoma = system: SK-MEL-5 melanoma
A498 renal = system: A498 renal
HT29 colon = system: HT29 colon
UACC-62 melanoma = system: UACC-62 melanoma
MOLT-4 leukemia = system: MOLT-4 leukemia
COLO 205 colon = system: COLO 205 colon

SMILES	GI50 (HCC-2998 colon) [nM]	TGI (HCC-2998 colon) [nM]	GI50 (NCI/ADR-RES ovarian) [nM]	TGI (NCI/ADR-RES ovarian) [nM]	GI50 (UACC-257 melanoma) [nM]	TGI (UACC-257 melanoma) [nM]	GI50 (CAKI-1 renal) [nM]	TGI (CAKI-1 renal) [nM]	GI50 (SK-OV-3 ovarian) [nM]	TGI (SK-OV-3 ovarian) [nM]	GI50 (M14 melanoma) [nM]	TGI (M14 melanoma) [nM]	GI50 (MDA-MB-231 breast) [nM]	TGI (MDA-MB-231 breast) [nM]	GI50 (SK-MEL-5 melanoma) [nM]	TGI (SK-MEL-5 melanoma) [nM]	GI50 (A498 renal) [nM]	TGI (A498 renal) [nM]	GI50 (HT29 colon) [nM]	TGI (HT29 colon) [nM]	further results
CC(C)C[C@@H](C=O)NC(=O)[C@H](CC(C)C)NC(=O)[C@H](CC(C)C)NC(=O)OCc1ccccc1 (Cbz-Leu-Leu-Leu-aldehyde)	179	327	1570	3060	131	263	228	676	220	538	179	324	177	326	215	370	263	796	178	335	GI50 (UACC-62 melanoma): 168 nM; TGI (UACC-62 melanoma): 312 nM; GI50 (MOLT-4 leukemia): 74.8 nM; TGI (MOLT-4 leukemia): 200 nM; GI50 (COLO 205 colon): 258 nM; TGI (COLO 205 colon): 714 nM
Cc1[nH]nc2ncc(C(=O)N3CCC[C@H]3c3ccc(Cl)cc3)cc12	32300	> 100000	30800	> 100000	> 100000	> 100000	> 100000	> 100000	> 100000	> 100000	> 100000	> 100000	> 100000	> 100000	50800	> 100000	39000	> 100000	> 100000	> 100000	GI50 (UACC-62 melanoma): 23400 nM; TGI (UACC-62 melanoma): 48600 nM; GI50 (MOLT-4 leukemia): 25500 nM; TGI (MOLT-4 leukemia): > 72700 nM; GI50 (COLO 205 colon): 33600 nM; TGI (COLO 205 colon): 83400 nM
